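In this assay, cells in 96-well plates receive the compound at five concentrations for 48 hours. Endpoints are linearly interpolated between the surrounding concentrations. At the TGI there is no net growth.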 Where only a bound is given, the exact number is not on record here.

Test systems include EKVX NSCLC; HS 578T breast; OVCAR-8 ovarian; CCRF-CEM leukemia; UACC-62 melanoma; 786-0 renal; A549 NSCLC; DU-145 prostate; SK-MEL-2 melanoma; SNB-75 CNS; HCC-2998 colon; HCT-116 colon; HOP-62 NSCLC; A498 renal; SW-620 colon.
What all share (experiment): inhibition of tumour cell growth, NCI panel, 48 h

As for `CCOC(=O)c1cc(-c2ccc([N+](=O)[O-])cc2)c([N+](=O)[O-])[nH]1`, the TGI with EKVX NSCLC, with HS 578T breast, in the assay with OVCAR-8 ovarian, with CCRF-CEM leukemia, in the assay with UACC-62 melanoma and with 786-0 renal was greater than 10 µM in each case. Moreover, the TGI in the assay on A549 NSCLC, with DU-145 prostate, in the assay with SK-MEL-2 melanoma, in the assay with SNB-75 CNS, with HCC-2998 colon and with HCT-116 colon was greater than 10 µM in each case.

Consider `N#CC(C(=O)/C(=N/NC(=O)c1ccccc1O)C(C#N)c1ccc(Br)cc1)c1ccc(Br)cc1` (stereo not drawn), for which the TGI with EKVX NSCLC came to 30 µM; with OVCAR-8 ovarian it was 19.8 µM; in the assay on CCRF-CEM leukemia it was 76.4 µM; in the assay on UACC-62 melanoma, 28.2 µM; with HOP-62 NSCLC it was 29.5 µM; in the assay on A498 renal it was 26.8 µM. In addition, the TGI amounted to 27 µM with 786-0 renal; 39.9 µM with A549 NSCLC; 25 µM in the assay with SK-MEL-2 melanoma; 18.1 µM in the assay with SW-620 colon; 9.98 µM in the assay with SNB-75 CNS; 24.7 µM in the assay with HCC-2998 colon. For the same compound, in the assay with HCT-116 colon, the TGI turned out to be 26.6 µM.

As for `O=S1(=O)OCCOS(=O)(=O)C1(Cl)Cl`, the TGI with EKVX NSCLC, in the assay with OVCAR-8 ovarian, in the assay with CCRF-CEM leukemia, in the assay on UACC-62 melanoma, with HOP-62 NSCLC and in the assay on A498 renal was greater than 100 µM each time. Moreover, the TGI in the assay with 786-0 renal, in the assay with A549 NSCLC, with SK-MEL-2 melanoma, in the assay on SW-620 colon, in the assay on SNB-75 CNS and in the assay with HCC-2998 colon was greater than 100 µM each time. The TGI with HCT-116 colon was greater than 100 µM.

For the compound `C=CCOC1CC(n2cnc3c(N)ncnc32)OC1CO` (stereo not drawn), the TGI in the assay with OVCAR-8 ovarian, in the assay with CCRF-CEM leukemia, with UACC-62 melanoma, in the assay with HOP-62 NSCLC, in the assay with 786-0 renal and in the assay on A549 NSCLC was greater than 100 µM in each case. The TGI with SK-MEL-2 melanoma, with SW-620 colon, with SNB-75 CNS, in the assay on HCC-2998 colon and with HCT-116 colon was greater than 100 µM each time.

`CC1OC(OC2C(OC(=O)[C@]34CCC(C)(C)CC3C3=CCC5[C@@]6(C)C[C@H](O)[C@H](OC7OC(COC8OC(CO)C(O)C(O)C8O)C(O)C(O)C7O)[C@@](C)(C(=O)O)C6CC[C@@]5(C)C3(C)CC4)OCC(O)C2O)C(O)C(O)C1OC1OCC(O)C(O)C1O` (stereo partly drawn): the TGI with EKVX NSCLC, in the assay with OVCAR-8 ovarian, in the assay on CCRF-CEM leukemia, in the assay on UACC-62 melanoma, in the assay with HOP-62 NSCLC and in the assay with A498 renal was greater than 100 µM throughout. Besides, the TGI in the assay on 786-0 renal, with A549 NSCLC, with SK-MEL-2 melanoma, in the assay with SW-620 colon, with SNB-75 CNS and in the assay on HCC-2998 colon was greater than 100 µM each time.

Regarding `Cc1ccc(C(=O)C(c2nc3n(c2O)C(=N)N=N3)c2nc3n(c2O)C(=N)N=N3)cc1` (stereo not drawn), the TGI with EKVX NSCLC, with OVCAR-8 ovarian, in the assay with CCRF-CEM leukemia, with UACC-62 melanoma, in the assay with A498 renal and with 786-0 renal was greater than 100 µM in each case. In addition, the TGI in the assay on A549 NSCLC, in the assay with SK-MEL-2 melanoma, with SW-620 colon, with SNB-75 CNS and in the assay on HCC-2998 colon was greater than 100 µM each time.

Consider `CN(C)CCCOc1ccc(/C=C2/CCC/C(=C/c3ccc(OCCCN(C)C)cc3)C2=O)cc1`, for which the TGI in the assay on EKVX NSCLC worked out at 6.84 µM; in the assay on OVCAR-8 ovarian, 6.5 µM; in the assay on CCRF-CEM leukemia, 3.84 µM; in the assay on UACC-62 melanoma, 3.74 µM; with HOP-62 NSCLC, 4.49 µM; with A498 renal it was 3.65 µM. Further, the TGI with 786-0 renal amounted to 2.59 µM; in the assay with A549 NSCLC, 6.28 µM; with SK-MEL-2 melanoma, 3.69 µM; with SW-620 colon it was 3.73 µM; in the assay on SNB-75 CNS, 2.61 µM; in the assay with HCC-2998 colon, 3.12 µM. In the assay on HCT-116 colon, this compound showed a TGI of 2.76 µM.

Take `CC(NC(=O)C(N)CC(=O)O)C(=O)OC12CC3CC(CC(C3)C1)C2` (stereo not drawn): the TGI in the assay with EKVX NSCLC, in the assay on HS 578T breast, in the assay with OVCAR-8 ovarian, in the assay with CCRF-CEM leukemia, with UACC-62 melanoma and with 786-0 renal was greater than 100 µM throughout. In addition, the TGI with A549 NSCLC, with DU-145 prostate, in the assay with SK-MEL-2 melanoma, with SW-620 colon, in the assay on SNB-75 CNS and in the assay on HCC-2998 colon was greater than 100 µM throughout. This compound also gave a TGI with HCT-116 colon greater than 100 µM.

For `O=C1CNc2cc(N3CCOCC3)ccc2N1`, the TGI with EKVX NSCLC, with HS 578T breast, in the assay on OVCAR-8 ovarian, with CCRF-CEM leukemia, in the assay on UACC-62 melanoma and in the assay on HOP-62 NSCLC was greater than 100 µM each time. The TGI with A498 renal, with 786-0 renal, with A549 NSCLC, with DU-145 prostate, in the assay with SK-MEL-2 melanoma and in the assay on SW-620 colon was greater than 100 µM each time. The TGI in the assay with SNB-75 CNS, in the assay on HCC-2998 colon and in the assay on HCT-116 colon was greater than 100 µM throughout.

As to `Cc1cn(CC2=NC3CCCCC3N2)c(=O)[nH]c1=O` (stereo not drawn), the TGI in the assay on EKVX NSCLC, in the assay with HS 578T breast, in the assay with OVCAR-8 ovarian, in the assay on CCRF-CEM leukemia, with UACC-62 melanoma and with HOP-62 NSCLC was greater than 100 µM each time. Moreover, the TGI in the assay on A498 renal, with 786-0 renal, in the assay with A549 NSCLC, in the assay with DU-145 prostate, with SK-MEL-2 melanoma and in the assay on SW-620 colon was greater than 100 µM in each case. For the same compound, the TGI with SNB-75 CNS, with HCC-2998 colon and with HCT-116 colon was greater than 100 µM in each case.

These data come from PubChem BioAssay (NCI).
